In ChEMBL document CHEMBL5030512 (J Med Chem, 2021):
Active and inactive are the calls of the source. The calls are words filed in the database; no cut-off is given here.

Legend:
HCT-116 [1] = assay: Cytotoxicity against human HCT-116 cells assessed as reduction in cell viability measured after 48 hrs by SRB assay; format: functional, cell-based; conditions: HCT-116, 48 h
HT-29 [2] = assay: Cytotoxicity against human HT-29 cells assessed as reduction in cell viability measured after 48 hrs by SRB assay; format: functional, cell-based; conditions: HT-29, 48 h
HCT-116 [3] = assay: Cytotoxicity against human HCT-116 cells assessed as reduction in cell viability measured after 48 hrs in presence of 5 mM GSH by SRB assay; format: functional, cell-based; conditions: HCT-116, 48 h
HT-29 [4] = assay: Cytotoxicity against human HT-29 cells assessed as reduction in cell viability measured after 48 hrs in presence of 5 mM GSH by SRB assay; format: functional, cell-based; conditions: HT-29, 48 h
NHDF = assay: Cytotoxicity against NHDF assessed as reduction in cell viability measured after 48 hrs by SRB assay; format: cell-based; conditions: Homo sapiens
Colon cancer cell line [5] = assay: Antitumour activity against human colorectal cancer cells xenografted in BALB/c mouse assessed as tumour suppression at 50 mg/kg, ip administered once every 3 days for 3 weeks; format: functional, organism-based
[6] = Toxicity in BALB/c mouse xenografted with human colorectal cancer cells assessed as reduction in body weight at 50 mg/kg, ip administered once every 3 days for 3 weeks; format: organism-based; design: scale not given: the % may be the effect or the level left; conditions: in vivo, 504 h
[7] = Biodistribution in BALB/c mouse stomach at 50 mg/kg, ip measured after 1 hr; format: ADME, organism-based; conditions: in vivo
[8] = Biodistribution in BALB/c mouse stomach at 9.5 mg/kg, ip measured after 1 hr; format: ADME, organism-based; conditions: in vivo
[9] = Biodistribution in BALB/c mouse spleen at 9.5 mg/kg, ip measured after 1 hr; format: ADME, organism-based; conditions: in vivo
[10] = Biodistribution in BALB/c mouse kidney at 9.5 mg/kg, ip measured after 1 hr; format: ADME, organism-based; conditions: in vivo
COS-7 = assay: Inhibition of GLUT1 in African green monkey COS-7 cells assessed as reduction in 2-NBDG uptake at 50 to 100 uM incubated for 90 mins by fluorescence microplate reader analysis; format: cell-based; conditions: Chlorocebus aethiops, dose 50-100 µM
HCT-116 [11] = assay: Cytotoxicity against human HCT-116 cells assessed as reduction in cell viability treated with 5 mM GSH measured after 48 hrs in presence of 5-FU by SRB assay; format: functional, cell-based; conditions: HCT-116, 48 h
HT-29 [12] = assay: Cytotoxicity against human HT-29 cells assessed as reduction in cell viability treated with 5 mM GSH measured after 48 hrs in presence of 5-FU by SRB assay; format: functional, cell-based; conditions: HT-29, 48 h
HCT-116 [13] = assay: Cytotoxicity against human HCT-116 cells assessed as reduction in cell viability measured after 48 hrs in presence of 5-FU by SRB assay; format: functional, cell-based; conditions: HCT-116, 48 h
HT-29 [14] = assay: Cytotoxicity against human HT-29 cells assessed as reduction in cell viability measured after 48 hrs in presence of 5-FU by SRB assay; format: functional, cell-based; conditions: HT-29, 48 h
[15] = Dissociation constant, pKa of compound; format: physicochemical
[16] = Stability in human plasma assessed as half life measured upto 48 hrs by RP-HPLC analysis; format: ADME, cell-free
[17] = Drug metabolism in 5 mM GSH assessed as 5-FU release after 48 hrs; format: ADME
[18] = Half life of the compound in 5 mM GSH; format: physicochemical
[19] = Drug degradation in 5 uM GSH after 48 hrs; format: ADME; conditions: read-out: Drug degradation
[20] = Drug metabolism in BALB/c mouse assessed as release of 5-FU in blood at 50 mg/kg, iv measured after 2 hrs by UPLC-MS/MS analysis; format: ADME, organism-based; conditions: in vivo
[21] = Drug uptake in BALB/c mouse blood at 50 mg/kg, iv measured after 30 mins by UPLC-MS/MS method; format: ADME, organism-based; conditions: in vivo, 0.5 h
[22] = Drug uptake in BALB/c mouse blood at 50 mg/kg, iv measured after 45 mins by UPLC-MS/MS method; format: ADME, organism-based; conditions: in vivo, 0.75 h
[23] = Drug uptake in BALB/c mouse blood at 50 mg/kg, iv measured after 4 hrs by UPLC-MS/MS method; format: ADME, organism-based; conditions: in vivo
[24] = Tmax in BALB/c mouse at 50 mg/kg, ip by LC-MS/MS analysis; format: ADME, organism-based; conditions: in vivo
[25] = Biodistribution in BALB/c mouse colon at 50 mg/kg, ip measured after 1 hr; format: ADME, organism-based; conditions: in vivo
[26] = Biodistribution in BALB/c mouse heart at 50 mg/kg, ip measured after 1 hr; format: ADME, organism-based; conditions: in vivo
[27] = Biodistribution in BALB/c mouse liver at 50 mg/kg, ip measured after 1 hr; format: ADME, organism-based; conditions: in vivo
[28] = Biodistribution in BALB/c mouse colon assessed as 5-FU release at 50 mg/kg, ip measured after 1 hr; format: ADME, organism-based; conditions: in vivo
[29] = Biodistribution in BALB/c mouse kidney assessed as 5-FU release at 50 mg/kg, ip measured after 1 hr; format: ADME, organism-based; conditions: in vivo
[30] = Biodistribution in BALB/c mouse stomach assessed as 5-FU release at 50 mg/kg, ip measured after 1 hr; format: ADME, organism-based; conditions: in vivo
Colon cancer cell line [31] = assay: Synergistic antitumour activity against human colorectal cancer cells xenografted in BALB/c mouse assessed as reduction in tumour size at 30 mg/kg, ip administered once every 3 days for 3 weeks in presence of 10 mg/kg 5-FU; format: functional, organism-based
[32] = Stability of compound at pH 4 to 5; format: physicochemical; conditions: buffer
[33] = Stability of compound at pH >= 7; format: physicochemical

`O=C(CCCSSCCOCCOCCOc1cc(O)c(C(=O)CCc2ccc(O)cc2)c(O[C@@H]2O[C@H](CO)[C@@H](O)[C@H](O)[C@H]2O)c1)OCn1cc(F)c(=O)[nH]c1=O` showed an IC50 (HCT-116 [1]) of 54.9 µM, an IC50 (HT-29 [2]) of 59.8 µM and an IC50 (HCT-116 [3]) of 23.8 µM. For the same compound, the IC50 (HT-29 [4]) was 8 µM.
For `O=c1[nH]cc(F)c(=O)[nH]1` [FLUOROURACIL], the IC50 (NHDF) was 70.4 µM, the Activity (Colon cancer cell line [5]) was “Active” and the Activity [6] was 10%. For the same compound, the Drug uptake [7] was “Active”, the Drug uptake [8] was “Active” and the Drug uptake [9] was “Active”. The Drug uptake [10] was “Active”.
With `O=C(CCc1ccc(O)cc1)c1c(O)cc(O)cc1O[C@@H]1O[C@H](CO)[C@@H](O)[C@H](O)[C@H]1O` the inhibition (COS-7) was “inactive”.
Work on `O=C(CCCc1cn(CCOCCOCCOc2cc(O)c(C(=O)CCc3ccc(O)cc3)c(O[C@@H]3O[C@H](CO)[C@@H](O)[C@H](O)[C@H]3O)c2)nn1)OCn1cc(F)c(=O)[nH]c1=O` yielded an IC50 (HCT-116 [1]) of over 100 µM and an IC50 (HT-29 [2]) of over 100 µM.
In the case of `O=C(CCc1ccc(O)cc1)c1c(O)cc(OCCOCCOCCS)cc1O[C@@H]1O[C@H](CO)[C@@H](O)[C@H](O)[C@H]1O`, the inhibition (COS-7) is reported as “inactive”, the IC50 (HCT-116 [1]) is reported as over 100 µM and the IC50 (HT-29 [2]) is reported as over 100 µM. The IC50 (HCT-116 [3]) was over 100 µM, the IC50 (HT-29 [4]) was over 100 µM and the IC50 (HCT-116 [11]) was 13.6 µM. For the same compound, the IC50 (HT-29 [12]) was 8.58 µM, the IC50 (HCT-116 [13]) was 21.9 µM and the IC50 (HT-29 [14]) was 21 µM.
Compound `O=C(CCCCCN1C(=O)CC(SCCOCCOCCOc2cc(O)c(C(=O)CCc3ccc(O)cc3)c(O)c2)C1=O)OCn1cc(F)c(=O)[nH]c1=O` (configuration not stated) has a pKa [15] of 8.5, a half-life [16] of 0.8 h and an IC50 (HCT-116 [1]) of 75 µM. For the same compound, the IC50 (HT-29 [2]) was 43.7 µM, the IC50 (HCT-116 [3]) was 82.8 µM and the IC50 (HT-29 [4]) was 86.9 µM.
`O=C(CCCCCN1C(=O)CC(SCCOCCOCCOc2cc(O)c(C(=O)CCc3ccc(O)cc3)c(O[C@@H]3O[C@H](CO)[C@@H](O)[C@H](O)[C@H]3O)c2)C1=O)OCn1cc(F)c(=O)[nH]c1=O` (some centres not stated) showed an IC50 (HCT-116 [1]) of 97.4 µM, an IC50 (HT-29 [2]) of over 100 µM and an IC50 (HCT-116 [3]) of over 100 µM. For the same compound, the IC50 (HT-29 [4]) was 93.6 µM.
With `O=C(CCCSSCCOCCOCCOc1cc(O)c(C(=O)CCc2ccc(O)cc2)c(O)c1)OCn1cc(F)c(=O)[nH]c1=O` the half-life [16] was 13 h, the Drug metabolism [17] was “Dose-Dependent Effect” and the t1/2 [18] was 4 h. The degraded at 48 h [19] was 30%, the IC50 (HCT-116 [1]) was 21.2 µM and the IC50 (HT-29 [2]) was 19.6 µM. For the same compound, the IC50 (HCT-116 [3]) was 10.5 µM, the IC50 (HT-29 [4]) was 3.8 µM and the IC50 (NHDF) was 90 µM. For the same compound, the Activity (Colon cancer cell line [5]) was “Active”, the Activity [6] was “Non-Toxic” and the Drug metabolism [20] was “Metabolite_Detected”. The Drug uptake [21] was “Not Active”, the Drug uptake [22] was “Active” and the Drug uptake [23] was “Active”. For the same compound, the Tmax [24] was 0.75 h, the Drug uptake [7] was “Active” and the Drug uptake [25] was “Active”. For the same compound, the Drug uptake [26] was “Active”, the Drug uptake [27] was “Active” and the Drug uptake [28] was “Active”. For the same compound, the Drug uptake [29] was “Active” and the Drug uptake [30] was “Active”.
For `O=C(CCc1ccc(O)cc1)c1c(O)cc(OCCOCCOCCS)cc1O`, the inhibition (COS-7) was “inactive”, the IC50 (HCT-116 [1]) was 15.5 µM and the IC50 (HT-29 [2]) was 29.1 µM. For the same compound, the IC50 (HCT-116 [3]) was 15.9 µM, the IC50 (HT-29 [4]) was 24.2 µM and the IC50 (HCT-116 [11]) was 8.73 µM. For the same compound, the IC50 (HT-29 [12]) was 3.03 µM, the IC50 (HCT-116 [13]) was 10.4 µM and the IC50 (HT-29 [14]) was 10.3 µM. The Activity (Colon cancer cell line [31]) was “Active”.
For `O=C(CCCc1cn(CCOCCOCCOc2cc(O)c(C(=O)CCc3ccc(O)cc3)c(O)c2)nn1)OCn1cc(F)c(=O)[nH]c1=O`, the pKa [15] was 8.5, the half-life [16] was 3.6 h and the Stability [32] was “Stable”. For the same compound, the Stability [33] was “Unstable”, the IC50 (HCT-116 [1]) was over 100 µM and the IC50 (HT-29 [2]) was 85 µM.
